Measurements: patent US20160316790A1, “BETA-HINOKITIOL DERIVATIVES AND APPLICATIONS THEREOF IN PREPARATION OF ANIMAL ANTIBACTERIAL AGENTS AND ANTIBACTERIAL GROWTH PROMOTERS USED IN FEED” (GUANGZHOU INSIGHTER BIOTECHNOLOGY CO., LTD., priority 2013, published 2016)
Converted amounts (≈) assume the structure as drawn. “And” between values parts separate entries of the source, which are not always exact repeats. Equal entries are not always repeated. Where two headings read alike, the source gives them in different places.

What was measured:
clostridium perfringens = assay: microbe, parasite or virus in culture; type: cell-based
salmonellas = assay: Minimum inhibitory concentration in vitro, doubling dilutions; type: cell-based
escherichia coli = assay: as above; type: cell-based
haemophilus parasuis = assay: as above; type: cell-based; conditions: Glaesserella parasuis
riemerella anatipestifer [1] = assay: as above; type: cell-based
vibrio = assay: as above; type: cell-based
streptococcus = assay: as above; type: cell-based
staphylococcus aureus = assay: as above; type: cell-based
riemerella anatipestifer [2] = assay: Protection effect against attacking and infection of riemerella anatipestifer; conditions: ducks, 5 × 10^7 CFU/bird, 7 days
[3] = Application effect test of β-hinokitiol derivatives in broiler feeds; type: in vivo, fast-grown type yellow feather broilers; conditions: 14 days; for Average daily weight gain / Average weight gain / Total consumption / feed conversion efficiency: broilers
From the text: 598 fast-grown type yellow feather broilers (female) aged 30-days were divided into five groups according to table 5. […] During the test, the broilers ate food and drank water freely. The test lasted for 14 days. […] [table]

[4] = Effect of β-hinokitiol derivatives on diarrhea of weaned pigs; type: in vivo
From the text: 80 25-day-old weaned pigs were randomly divided into eight groups according to table 7, 10 pigs in each group. […] During the testing, the pigs ate food and drank water freely with temperature preservation. The test lasted for 10 days.

[5] = tested on: major animal pathogenic bacteria; assay: In vitro antibacterial activity (MICs), overall statement; type: cell-based; conditions: Tables 1 to 4
[6] = read-out: Minimum inhibitory concentration (MIC), Clostridium JM1210B
[7] = read-out: Minimum inhibitory concentration (MIC), Clostridium JM1212A
[8] = strain FS1303B, read-out: Minimum inhibitory concentration (MIC), Salmonellas FS1303B
[9] = strain GD1303-3, read-out: Minimum inhibitory concentration (MIC), Salmonellas GD1303-3
[10] = read-out: Minimum inhibitory concentration (MIC), Eserichia coli HZ1308-1
[11] = read-out: Minimum inhibitory concentration (MIC), Eserichia coli SS1107A
[12] = strain 2-3A, read-out: Minimum inhibitory concentration (MIC), Haemophilus parasuis 2-3A
[13] = read-out: Minimum inhibitory concentration (MIC), Riemerella anatipestifer SCAU03
[14] = strain WS, read-out: Minimum inhibitory concentration (MIC), Riemerella anatipestifer WS
[15] = read-out: Minimum inhibitory concentration (MIC), Vibrio VP3
[16] = read-out: Minimum inhibitory concentration (MIC), Vibrio VP5
[17] = strain KP1307-1, read-out: Minimum inhibitory concentration (MIC), Streptococcus KP1307-1
[18] = strain TS1205-2, read-out: Minimum inhibitory concentration (MIC), Streptococcus TS1205-2
[19] = read-out: Minimum inhibitory concentration (MIC), Staphylococcus aureus PNB14
[20] = read-out: Minimum inhibitory concentration (MIC), Staphylococcus aureus SA10
[21] = read-out: Minimum inhibitory concentration (MIC), Haemophilus parasuis S5A

Q: Which MIC (clostridium perfringens; [6]) does the source give for CCC(C)c1cccc(=O)c(O)c1 (stereo not shown) [IST_009_008, 4-(sec-butyl)-2-hydroxycyclohepta-2,4,6-trienone] here?
A: Its MIC is 12.5 µg/mL (≈ 70.1 µM).

Q: What about the MIC (clostridium perfringens; [7]) of the same compound?
A: The MIC was 12.5 µg/mL (≈ 70.1 µM).

Q: And the MIC (salmonellas; [8])?
A: Its MIC is 25 µg/mL (≈ 140 µM).

Q: What about the MIC (salmonellas; [9]) of the same compound?
A: The MIC was 25 µg/mL (≈ 140 µM).

Q: And the MIC (escherichia coli; [10])?
A: Its MIC is 25 µg/mL (≈ 140 µM).

Q: And the MIC (escherichia coli; [11])?
A: Its MIC is 25 µg/mL (≈ 140 µM).

Q: What about the MIC (haemophilus parasuis; [12]) of the same compound?
A: The MIC was 0.39 µg/mL (≈ 2.19 µM).

Q: And the MIC (riemerella anatipestifer [1]; [13])?
A: The MIC was 12.5 µg/mL (≈ 70.1 µM).

Q: What about the MIC (riemerella anatipestifer [1]; [14]) of the same compound?
A: Its MIC is 6.25 µg/mL (≈ 35.1 µM).

Q: And the MIC (vibrio; [15])?
A: Its MIC is 50 µg/mL (≈ 281 µM).

Q: What about the MIC (vibrio; [16]) of the same compound?
A: Its MIC is 25 µg/mL (≈ 140 µM).

Q: What about the MIC (streptococcus; [17]) of the same compound?
A: The MIC was 50 µg/mL (≈ 281 µM).

Q: And the MIC (streptococcus; [18])?
A: Its MIC is 50 µg/mL (≈ 281 µM).

Q: Which results are given for CCCCCCCCCCCCCCc1cccc(=O)c(O)c1 [IST_009_033, 2-hydroxy-4-tetradecylcyclohepta-2,4,6-trienone]?
A: MIC (clostridium perfringens; [6]): 50 µg/mL (≈ 157 µM); MIC (clostridium perfringens; [7]): 50 µg/mL (≈ 157 µM); MIC (salmonellas; [8]): > 100 µg/mL; MIC (salmonellas; [9]): > 100 µg/mL; MIC (escherichia coli; [10]): > 100 µg/mL; MIC (escherichia coli; [11]): > 100 µg/mL; MIC (haemophilus parasuis; [12]): 50 µg/mL (≈ 157 µM); MIC (riemerella anatipestifer [1]; strain SCAU03, read-out: Minimum inhibitory concentration (MIC), Riemerella anatipestifer SCAU03): 100 µg/mL (≈ 314 µM); MIC (riemerella anatipestifer [1]; [14]): 25 µg/mL (≈ 78.5 µM); MIC (vibrio; [15]): > 100 µg/mL; MIC (vibrio; [16]): > 100 µg/mL; MIC (streptococcus; [17]): > 100 µg/mL; MIC (streptococcus; [18]): > 100 µg/mL

Q: Which MIC (clostridium perfringens; [6]) does the source give for CCCCCCCCc1cccc(=O)c(O)c1 [IST_009_030, 2-hydroxy-4-octylcyclohepta-2,4,6-trienone] here?
A: The MIC was 25 µg/mL (≈ 107 µM).

Q: What about the MIC (clostridium perfringens; [7]) of the same compound?
A: Its MIC is 12.5 µg/mL (≈ 53.3 µM).

Q: What about the MIC (staphylococcus aureus; [19]) of the same compound?
A: The MIC was 12.5 µg/mL (≈ 53.3 µM).

Q: And the MIC (staphylococcus aureus; [20])?
A: The MIC was 12.5 µg/mL (≈ 53.3 µM).

Q: What about the MIC (salmonellas; [8]) of the same compound?
A: The MIC was 25 µg/mL (≈ 107 µM).

Q: What about the MIC (salmonellas; [9]) of the same compound?
A: The MIC was over 100 µg/mL.

Q: And the MIC (escherichia coli; [10])?
A: Its MIC is 25 µg/mL (≈ 107 µM).

Q: And the MIC (escherichia coli; [11])?
A: The MIC was over 100 µg/mL.

Q: And the MIC (haemophilus parasuis; [21])?
A: The MIC was 0.39 µg/mL (≈ 1.66 µM).

Q: And the MIC (haemophilus parasuis; [12])?
A: The MIC was 6.25 µg/mL (≈ 26.7 µM).

Q: And the MIC (riemerella anatipestifer [1]; [13])?
A: Its MIC is 12.5 µg/mL (≈ 53.3 µM).

Q: And the MIC (riemerella anatipestifer [1]; [14])?
A: The MIC was 3.13 µg/mL (≈ 13.4 µM).

Q: And the MIC (vibrio; [15])?
A: Its MIC is over 100 µg/mL.

Q: And the MIC (vibrio; [16])?
A: Its MIC is over 100 µg/mL.

Q: What about the MIC (streptococcus; [17]) of the same compound?
A: The MIC was 25 µg/mL (≈ 107 µM).

Q: What about the MIC (streptococcus; [18]) of the same compound?
A: Its MIC is 25 µg/mL (≈ 107 µM).

Q: What does the source list for O=c1cccc(Cc2ccc(Cl)cc2)cc1O [IST_009_025, 4-(4-chlorobenzyl)-2-hydroxycyclohepta-2,4,6-trienone]?
A: MIC (vibrio; [15]): > 100 µg/mL; MIC (vibrio; [16]): > 100 µg/mL; MIC (streptococcus; [17]): 25 µg/mL (≈ 101 µM); MIC (streptococcus; [18]): 25 µg/mL (≈ 101 µM)

Q: For CO/N=C(\C(=O)N[C@@H]1C(=O)N2C(C(=O)O)=C(COC(C)=O)CS[C@H]12)c1csc(N)n1 [Cefotaxime, reference compound], which Death rate (riemerella anatipestifer [2]; 10 mg/kg weight intramuscular) is on record?
A: Its Death rate is 0%.

Q: What about the Morbidity (riemerella anatipestifer [2]; 10 mg/kg weight intramuscular) of the same compound?
A: Its Morbidity is 25%.

Q: What does the source list for O=c1cccc(Cc2ccc(F)cc2)cc1O [IST_009_028, 4-(4-fluorobenzyl)-2-hydroxycyclohepta-2,4,6-trienone]?
A: MIC (vibrio; [15]): 100 µg/mL (≈ 434 µM); MIC (vibrio; [16]): 100 µg/mL (≈ 434 µM); MIC (streptococcus; [17]): 25 µg/mL (≈ 109 µM); MIC (streptococcus; [18]): 25 µg/mL (≈ 109 µM)

Q: With CCCc1cccc(=O)c(O)c1 [IST_009_001, 2-hydroxy-4-propylcyclohepta-2,4,6-trienone] as the compound, how does the MIC (clostridium perfringens; [6]) read?
A: Its MIC is 3.13 µg/mL (≈ 19.1 µM).

Q: And the MIC (clostridium perfringens; [7])?
A: The MIC was 3.13 µg/mL (≈ 19.1 µM).

Q: What about the MIC (staphylococcus aureus; [19]) of the same compound?
A: Its MIC is 12.5 µg/mL (≈ 76.1 µM).

Q: What about the MIC (staphylococcus aureus; [20]) of the same compound?
A: The MIC was 12.5 µg/mL (≈ 76.1 µM).

Q: What about the MIC (salmonellas; [8]) of the same compound?
A: The MIC was 6.25 µg/mL (≈ 38.1 µM).

Q: What about the MIC (salmonellas; [9]) of the same compound?
A: Its MIC is 12.5 µg/mL (≈ 76.1 µM).

Q: What about the MIC (escherichia coli; [10]) of the same compound?
A: The MIC was 12.5 µg/mL (≈ 76.1 µM).

Q: What about the MIC (escherichia coli; [11]) of the same compound?
A: Its MIC is 12.5 µg/mL (≈ 76.1 µM).

Q: And the MIC (haemophilus parasuis; [21])?
A: The MIC was 0.2 µg/mL (≈ 1.22 µM).

Q: What about the MIC (haemophilus parasuis; [12]) of the same compound?
A: Its MIC is 0.39 µg/mL (≈ 2.38 µM).

Q: What about the MIC (riemerella anatipestifer [1]; [13]) of the same compound?
A: Its MIC is 12.5 µg/mL (≈ 76.1 µM).

Q: What about the MIC (riemerella anatipestifer [1]; read-out: Minimum inhibitory concentration (MIC), Riemerella anatipestifer WS) of the same compound?
A: Its MIC is 3.13 µg/mL (≈ 19.1 µM).

Q: And the MIC (vibrio; [15])?
A: The MIC was 12.5 µg/mL (≈ 76.1 µM).

Q: What about the MIC (vibrio; [16]) of the same compound?
A: Its MIC is 6.25 µg/mL (≈ 38.1 µM).

Q: And the MIC (streptococcus; [17])?
A: The MIC was 25 µg/mL (≈ 152 µM).

Q: What about the MIC (streptococcus; [18]) of the same compound?
A: Its MIC is 25 µg/mL (≈ 152 µM).

Q: What about the “Average daily weight gain” value ([3]; 5 ppm mixed with feed) of the same compound?
A: Its value is 37.75 g/d * bird and 36.93 g/d * bird and 33.52 g/d * bird.

Q: What about the Average weight gain ([3]; 5 ppm mixed with feed) of the same compound?
A: The Average weight gain was 516.79 g and 520.00 g and 547.21 g.

Q: And the Total consumption ([3]; 5 ppm mixed with feed)?
A: The Total consumption was 61 kg and 58.85 kg and 55.12 kg.

Q: And the feed conversion efficiency ([3]; 5 ppm mixed with feed)?
A: Its feed conversion efficiency is 2.886 and 2.846 and 2.808.

Q: And the “Average daily weight gain” value ([3]; 15 ppm mixed with feed)?
A: The value was 36.94 g/d * bird and 37.5 g/d * bird and 34.53 g/d * bird.

Q: What about the Average weight gain ([3]; 15 ppm mixed with feed) of the same compound?
A: Its Average weight gain is 517.17 g and 525.50 g and 523.38 g.

Q: What about the Total consumption ([3]; 15 ppm mixed with feed) of the same compound?
A: The Total consumption was 58.03 kg and 57.61 kg and 57.84 kg.

Q: And the feed conversion efficiency ([3]; 15 ppm mixed with feed)?
A: The feed conversion efficiency was 2.807 and 2.741 and 2.889.

Q: What about the “weight gain and feed conversion efficiency of the experimental broilers (in words)” value ([3]; in feed) of the same compound?
A: The value was “could enhance the weight gain and the feed conversion efficiency”.

Q: And the “effect on diarrhea compared with colistin sulfate or IST_001_002 groups (in words)” value ([4]; 30 ppm test group)?
A: Its value is “obviously better than that of colistin sulfate or IST_001_002 groups”.

Q: What about the “Average daily diarrhea rate” value ([4]; weaned pigs, 30 ppm in diet, 10 days) of the same compound?
A: The value was 16% and 17%.

Q: What about the “diarrhea rate of the tested pigs (in words)” value ([4]; weaned pigs, added in feeds, 10 days) of the same compound?
A: The value was “could obviously reduce the diarrhea rate”.

Q: What about the “antibacterial activities compared with the lead compound IST_001_002 (in words)” value [5] of the same compound?
A: The value was “better than those of the lead compound IST_001_002”.

Q: And the Death rate (riemerella anatipestifer [2]; 10 mg/kg weight intramuscular)?
A: The Death rate was 0%.

Q: What about the Morbidity (riemerella anatipestifer [2]; 10 mg/kg weight intramuscular) of the same compound?
A: The Morbidity was 40%.

Q: What about the Death rate (riemerella anatipestifer [2]; 20 mg/kg weight intramuscular) of the same compound?
A: The Death rate was 0%.

Q: What about the Morbidity (riemerella anatipestifer [2]; 20 mg/kg weight intramuscular) of the same compound?
A: Its Morbidity is 25%.
